Experimental data from patent US20260008793A1, “IONIZABLE CATIONIC LIPIDS INCORPORATING SILICON” (ALDEXCHEM KFT., priority 2022, published 2026).

Experiments:
[1] = LNP size, PDI and zeta potential by Dynamic Light Scattering (Method A); assay type: physicochemical; conditions: LNP formulated by Method A; for Zeta potential (mV): 1xPBS pH 7.4; for PDI / Size (nm): DLS; for Size (nm): Luciferase-mRNA loaded
Description: (§1) The synthesized lipids were tested in term of in vitro transfection efficacy and toxicity on HeLa cells. In order to perform the mentioned biological tests, appropriate LNPs had to be formulated from the synthesized lipids. The formulation technique was different in Method A and B. The particle size, PDI and zeta potential of resulting LNPs were determined by means of Dynamic Light Scattering technique (DLS). Prior to biological testing the encapsulation efficiency (EE) of the loaded LNPs was determined by using RiboGreen RNA assay. In case of Method A Luciferase-mRNA while in case of Method B GFP-mRNA was transfected into the cells. In parallel with the transfection experiments, toxicity of the investigated LNPs was determined, in case of Method A resazurin assay while in case of Method B MTT assay was used. In the case of some lipids, the apparent pKa in LNPs was determined by using TNS titration based on the method described: Angew Chem Int Ed Engl. 2012, 51 (34), 8529-8533, doi: 10.1002/anie.201203263).
• 1. If needed, prepare stock solutions by solving known amounts of lipid powder into an appropriate solvent. The recommended solvent is Ethanol and the recommended concentration is typically in the range 10-50 mM. Higher concentrations are preferred to allow flexibility on mRNA-LNP concentration. • 2. Remove the lipid stock solutions from the −20° C. freezer. For long-term storage, −80° C. is used. • 3. Check the vials for precipitation, DOPE (CAS #4004-05-1) (20 mM) and DSPE-PEG (CAS #474922-26-4) (5 mM) may need a 5-30 minute incubation step at 37° C. with intermittent vortexing to resuspend all contents. […] As a last resort, lipids may be heated to 50° C. to resuspend, time should be kept as short as possible to prevent oxidation or other modifying or degradative processes. • 4. Mix the lipids by vortexing for 2 minutes. • 5. […] Cooling the solution prevent excessive evaporation of ethanol or similar solvents upon opening. • 6. Meanwhile, thaw the RNA samples, including the latest SecNLuc control, by inserting the frozen tube in a room temperature aluminium block. • 7. Prepare for each LNP-formulation with identical mRNA component, an RNA master mix according to Table 1 below in a fresh tube. Use of a master mix allows more precise comparison of lipid formulations relative to each other. Split the master mix over a number of fresh tubes equal to the number of samples+controls. Each tube contains 375 μl of mRNA in 10 mM Citrate pH 4.0. • 8. Prepare for each LNP formulation with identical lipid composition a Lipid master mix according to Table 1 below in a fresh tube, exclude the lipid of interest. Use of a master mix allows more precise comparison of the novel ionizable lipid relative to each other. Split the master mix over a number of fresh tubes equal to the number of samples+controls. Each tube contains 65.5 μl of lipid master mix. • 9. Add the ionizable lipid of interest to the equally divide lipid master mix. Mix well by pipetting up and down. Label the tube according to the ionizable lipid used. • 10. Power on the ‘L 1 formulation machine’ (L 1 FM) and allow it to do a calibration of motor positions.
• 18. Fill a fresh syringe (C) through a blunt 18 G stainless steel needle with the previously prepared RNA mixture of step 6. The volume should be approximately […] of total formulation volume+25 μl (dead-volume). Make sure to remove all air bubbles by tapping. • 19. Fill a fresh syringe (D) through a blunt 18 G stainless steel needle with the Lipid master mix. The volume should be approximately 35% of total formulation volume+25 μl (dead-volume). Again, Make sure to remove all bubbles. • 20. Attach the syringes in the correct orientation, syringe A on the left and syringe B on the right • 21. Load the ‘Receiving station’ with appropriate sized collection containers (2 ml Eppendorf tubes). • 22. Press the microfluidic chip to the back of the machine with your thumb and hold, press the ‘Button 1’ (40 g). […]

[2] = tested on: HeLa cells; test: Transfection efficiency with Luciferase-mRNA, Nano-Glo assay (Method A); assay type: cell-based; conditions: 100 ng Luciferase (SecNLuc) mRNA, 24 h, luminescence
Description: as §1
• 1. Prepare mRNA solution by adding 100 ng mRNA (SecNLuc, #P009024, RiboPro) to 5 μl Opti-MEM • a. multiply by number of wells, include different concentrations and add 10% extra • b. a standard set-up we use is 100 ng-50 ng-10 ng mRNA/well in triplicate, which would need 528 ng mRNA (includes 10% extra)
• 2. (If applicable) Prepare different concentrations in Opti-MEM (for instance 100/50/10 ng). • 3. Add 10 μl to each well and mix carefully by pipetting. • 4. Mix by swirling the plate horizontally at modest speed. Reverse in direction 3 times. • 5. Incubate for 24 hours (incubator).
This protocol is applied to measure luciferase activity for secreted NanoLuc and is based on the protocol by Promega (Nano-Glo® Luciferase Assay System #N1110-1150). The protocol is designed for a 384-wells plate, but volumes can be changed accordingly for other plates.
• 1. Plate cells (HeLa) in 96-well plate, grow until 80% confluent and transfect with SecNanoLuc mRNA and incubate for the desired period (24 h). • 2. After incubation, the translated protein is accumulated in the medium. Transfer medium to a new plate or tubes • 3. Transfer 12 μl of each sample to a black-walled, clear-bottom 384-well plate • a. Black-walled plates are important to prevent shine-through of luminescence from other wells; alternatively, multiple wells between samples can be left empty • 4. Set-up plate reader • 5. Prepare the desired amount of Nano-Glo® Luciferase Assay Reagent by combining one volume of Nano-Glo® Luciferase Assay Substrate with 50 volumes of Nano-Glo® Luciferase Assay Buffer • a. composition: 100 mM MES pH 6; 1 mM EDTA; 0.5% NP-50; 150 mM KCl; 1 mM DTT; 35 mM Thiourea • b. Briefly spin tubes containing substrate in a microcentrifuge before use • 6. Add and mix (by pipetting) 12 μl Nano-Glo® Luciferase Assay Reagent per well • a. Wait approximately 3 minutes before measuring luminescence. […] Measure luminescence in plate reader using standard protocol luciferase (this includes mixing sample in plate reader)

Row | Compound | Zeta potential (mV) [1] [mV] | PDI [1] | Size (nm) [1] [nm] | Transfection* (Method A = 100 ng mRNA) [2]
1 | CCCCCCCCOC(CCCCCCCC)O[Si](C)(C)OCCCCCCN(CCCCO)CCCCCCOC(=O)C(CCCCCC)CCCCCCCC (stereo not shown) [Example 143, 7-(4-hydroxybutyl)-15,15-dimethyl-17-octyl-14,16,18-trioxa-7-aza-15-silahexacosyl 2-hexyldecanoate] | −5.5 | 0.17 | 159.7 | 4825007
2 | CCCCCCCCC(SCCCCC)C(=O)OCCCCCCN(CCCCO)CCCCCCOC(CCCCCCC)O[Si](C)(C)O[Si](C)(C)CCCCCCCC (stereo not shown) [Example 182, 15-heptyl-7-(4-hydroxybutyl)-17,17,19,19-tetramethyl-14,16,18-trioxa-7-aza-17,19-disilaheptacosyl 2-(pentylthio)decanoate] | −12.56 | 0.045 | 136.8 | 227368
3 | CCCCCCCCSC(CCCCCCC)O[Si](C)(C)OCCCCCCN(CCCCO)CCCCCCOC(=O)C(CCCCCC)CCCCCCCC (stereo not shown) [Example 147, 17-heptyl-7-(4-hydroxybutyl)-15,15-dimethyl-14,16-dioxa-18-thia-7-aza-15-silahexacosyl 2-hexyldecanoate] | −7.5 | 0.14 | 146.8 | 4302243
4 | CCCCCCCCOC(CCCCCN(CCCCO)CCCCCCOC(=O)C(CCCCCCCC)SCCCCC)O[Si](C)(C)OCC(CCCCCC)CCCCCCCC (stereo not shown) [Example 185, 18-hexyl-7-(4-hydroxybutyl)-15,15-dimethyl-13-(octyloxy)-14,16-dioxa-7-aza-15-silahexacosyl 2-(pentylthio)decanoate] | −16.4 | 0.04 | 213.6 | 1019830
5 | CCCCCCCCOC(CCCCCN(CCCCO)CCCCCCOC(=O)C(CCCCCCCC)SCCCCC)O[Si](C)(C)O[Si](C)(C)OCCCCCCCC (stereo not shown) [Example 183, 6-((4-hydroxybutyl)(6-(octyloxy)-6-((1,1,3,3-tetramethyl-3-(octyloxy)disiloxaneyl)oxy)hexyl)amino)hexyl 2-(pentylthio)decanoate] | −10.92 | 0.044 | 143.9 | 968235
6 | CCCCCCCC[Si](C)(C)OC(CCCCCCC)OCCCCCCN(CCCCO)CCC[C@@H](C)C1CCC2C3CCC4C[C@H](OC)CC[C@]4(C)C3CC[C@@]21C (stereo partly drawn) [Example 215, 13-heptyl-5-((4R)-4-((3R,10S,13R)-3-methoxy-10,13-dimethylhexadecahydro-1H-cyclopenta[a]phenanthren-17-yl)pentyl)-15,15-dimethyl-12,14-dioxa-5-aza-15-silatricosan-1-ol] | −3.3 | 0.211 | 204 | 522805
7 | CCCCCCCCCC(OCCCCCCN(CCCCO)CCCCCCOC(CCCCCCCCC)O[Si](C)(C)CCCCCC)O[Si](C)(C)CCCCCC (stereo not shown) [Example 104, 5-(6-((1-((hexyldimethylsilyl)oxy)decyl)oxy)hexyl)-15,15-dimethyl-13-nonyl-12,14-dioxa-5-aza-15-silahenicosan-1-ol] | −13.26 | 0.043 | 184.4 | 27631.5
8 | CCCCCCCCC(CCCCCC)CO[Si](C)(C)OC(CCCCCCC)OCCCCCCN(CCCCO)CCCCCCOC(=O)C(CCCCCC)CCCCCCCC (stereo not shown) [Example 137, 15-heptyl-20-hexyl-7-(4-hydroxybutyl)-17,17-dimethyl-14,16,18-trioxa-7-aza-17-silaoctacosyl 2-hexyldecanoate] | −16.61 | 0.096 | 169.2 | 1713925
9 | CCCCCCCCC(CCCCCC)C(=O)OCCCCCCN(CCCCO)CCCCCCOC(=O)C(CCCCCC)CCCCCCCC (stereo not shown) [ALC-0315, reference compound] | −11.12 | 0.113 | 172.6 | 836793
10 | CC/C=C\C/C=C\C/C=C\C/C=C\C/C=C\CCCCN(CCCCO)CCCCCCOC(CCCCCCC)O[Si](C)(C)O[Si](C)(C)OCCCCCCCC (stereo not shown) [Example 201, 13-heptyl-5-((5Z,8Z,11Z,14Z,17Z)-icosa-5,8,11,14,17-pentaen-1-yl)-15,15,17,17-tetramethyl-12,14,16,18-tetraoxa-5-aza-15,17-disilahexacosan-1-ol] | −13.1 | 0.055 | 176.2 | 25071
11 | CCCCCCCCOC(CCCCCN(CCCCO)CCCCCCOC(=O)C(CCCCCC)CCCCCCCC)O[Si](C)(C)OCC(CCCCCC)CCCCCCCC (stereo not shown) [Example 136, 18-hexyl-7-(4-hydroxybutyl)-15,15-dimethyl-13-(octyloxy)-14,16-dioxa-7-aza-15-silahexacosyl 2-hexyldecanoate] | −13.28 | 0.259 | 305.2 | 61666
12 | CC/C=C\C/C=C\C/C=C\C/C=C\C/C=C\CCCCN(CCCCO)CCCCCCOC(CCCCCCC)O[Si](C)(C)CCCCCCCC (stereo not shown) [Example 195, 13-heptyl-5-((5Z,8Z,11Z,14Z,17Z)-icosa-5,8,11,14,17-pentaen-1-yl)-15,15-dimethyl-12,14-dioxa-5-aza-15-silatricosan-1-ol] | −5.8 | 0.04 | 155.2 | 180769
13 | CCCCCCCCC(CCCCCC)C(=O)OCCCCCCN(CCCCO)CCCCCCOC(CCCCCCC)O[Si](C)(C)O[Si](C)(C)CCCCCCCC (stereo not shown) [Example 133, 15-heptyl-7-(4-hydroxybutyl)-17,17,19,19-tetramethyl-14,16,18-trioxa-7-aza-17,19-disilaheptacosyl 2-hexyldecanoate] | −10.68 | 0.039 | 135.7 | 73879.5
